{"source": "ChEMBL document CHEMBL1201862", "about": "“PubChem BioAssay data set” (2004)", "target": "Envelope glycoprotein gp160 (Human immunodeficiency virus 1, UniProt Q6QLK5)", "sequence (Q6QLK5 whole entry, the tested form may be a part)": "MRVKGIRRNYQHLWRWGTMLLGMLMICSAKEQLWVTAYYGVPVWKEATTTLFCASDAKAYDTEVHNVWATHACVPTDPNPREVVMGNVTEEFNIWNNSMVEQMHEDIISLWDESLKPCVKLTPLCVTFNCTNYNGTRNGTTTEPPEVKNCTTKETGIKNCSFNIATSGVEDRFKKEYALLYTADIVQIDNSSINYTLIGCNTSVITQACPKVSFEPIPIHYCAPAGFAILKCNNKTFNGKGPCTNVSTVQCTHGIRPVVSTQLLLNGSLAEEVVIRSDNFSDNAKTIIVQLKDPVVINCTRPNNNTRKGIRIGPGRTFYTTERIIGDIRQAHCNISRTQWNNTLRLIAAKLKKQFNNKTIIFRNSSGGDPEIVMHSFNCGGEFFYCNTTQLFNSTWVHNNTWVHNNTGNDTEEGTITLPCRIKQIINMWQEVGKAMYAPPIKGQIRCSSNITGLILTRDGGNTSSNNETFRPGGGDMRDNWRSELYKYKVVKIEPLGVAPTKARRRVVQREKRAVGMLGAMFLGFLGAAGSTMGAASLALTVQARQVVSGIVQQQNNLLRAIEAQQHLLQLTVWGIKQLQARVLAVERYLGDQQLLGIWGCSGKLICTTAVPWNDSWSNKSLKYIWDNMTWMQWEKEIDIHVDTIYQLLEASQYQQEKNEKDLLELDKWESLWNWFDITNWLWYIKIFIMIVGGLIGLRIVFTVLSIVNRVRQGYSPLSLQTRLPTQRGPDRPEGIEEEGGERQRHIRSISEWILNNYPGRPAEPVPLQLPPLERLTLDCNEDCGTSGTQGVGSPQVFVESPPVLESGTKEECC", "assay": "cell-free HIV fusion peptide-binding blockers – biochemical, uHTS, fluorescence dequenching, […] (AID 1986)", "note": "The source made the active and inactive calls. Rule as the data show it: actives have a measured IC50 and inactives only a lower limit."}
{"compound": "O=C(Nc1cc(C(=O)Nc2ccccc2C(=O)O)cc(C(=O)Nc2ccccc2C(=O)O)c1)c1ccccc1", "values": [{"measurement": "IC50", "result": "6.36 µM (active)"}]}
{"compound": "COc1ccc(C(=O)Nc2ccc(/C(C)=N/NC(=O)c3ccncc3)cc2)cc1", "values": [{"measurement": "IC50", "result": "15 µM (active)"}]}
